Data: PubChem BioAssay (NCI)
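The compound was tested at five concentrations on cells cultured in 96-well plates, with a 48-hour exposure period. TGI is the concentration that stops growth completely.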

Key:
Assay in all cases: NCI tumour cell line growth inhibition, 48 h
786-0 renal = system: 786-0 renal
A498 renal = system: A498 renal
A549 NSCLC = system: A549 NSCLC
ACHN renal = system: ACHN renal
BT-549 breast = system: BT-549 breast
CAKI-1 renal = system: CAKI-1 renal
CCRF-CEM leukemia = system: CCRF-CEM leukemia
COLO 205 colon = system: COLO 205 colon
DU-145 prostate = system: DU-145 prostate
EKVX NSCLC = system: EKVX NSCLC
HCC-2998 colon = system: HCC-2998 colon
HCT-116 colon = system: HCT-116 colon
HCT-15 colon = system: HCT-15 colon
HL-60(TB) leukemia = system: HL-60(TB) leukemia
HOP-62 NSCLC = system: HOP-62 NSCLC
HOP-92 NSCLC = system: HOP-92 NSCLC
HS 578T breast = system: HS 578T breast
HT29 colon = system: HT29 colon
IGROV1 ovarian = system: IGROV1 ovarian
K-562 leukemia = system: K-562 leukemia
KM12 colon = system: KM12 colon
LOX IMVI melanoma = system: LOX IMVI melanoma
M14 melanoma = system: M14 melanoma
MALME-3M melanoma = system: MALME-3M melanoma
MCF7 breast = system: MCF7 breast
MDA-MB-231 breast = system: MDA-MB-231 breast
MDA-N = system: MDA-N
MOLT-4 leukemia = system: MOLT-4 leukemia
NCI-H226 lung = system: NCI-H226 lung
NCI-H23 lung = system: NCI-H23 lung
NCI-H460 lung = system: NCI-H460 lung
NCI-H522 lung = system: NCI-H522 lung
NCI/ADR-RES ovarian = system: NCI/ADR-RES ovarian
OVCAR-3 ovarian = system: OVCAR-3 ovarian
OVCAR-4 ovarian = system: OVCAR-4 ovarian
OVCAR-5 ovarian = system: OVCAR-5 ovarian
OVCAR-8 ovarian = system: OVCAR-8 ovarian
PC-3 prostate = system: PC-3 prostate
RPMI-8226 leukemia = system: RPMI-8226 leukemia
RXF 393 renal = system: RXF 393 renal
SF-268 CNS = system: SF-268 CNS
SF-295 CNS = system: SF-295 CNS
SF-539 CNS = system: SF-539 CNS
SK-MEL-2 melanoma = system: SK-MEL-2 melanoma
SK-MEL-28 melanoma = system: SK-MEL-28 melanoma
SK-MEL-5 melanoma = system: SK-MEL-5 melanoma
SK-OV-3 ovarian = system: SK-OV-3 ovarian
SN12C renal = system: SN12C renal
SNB-75 CNS = system: SNB-75 CNS
SR leukemia = system: SR leukemia
SW-620 colon = system: SW-620 colon
T-47D breast = system: T-47D breast
TK-10 renal = system: TK-10 renal
U251 CNS = system: U251 CNS
UACC-257 melanoma = system: UACC-257 melanoma
UACC-62 melanoma = system: UACC-62 melanoma
UO-31 renal = system: UO-31 renal
SNB-19 CNS = system: SNB-19 CNS

## O=c1ccc2[n+]([O-])c3ccc(O)cc3oc-2c1
786-0 renal
  TGI: 27.2 µM
A498 renal
  TGI: > 100 µM
A549 NSCLC
  TGI: 20.6 µM
ACHN renal
  TGI: > 37.7 µM
BT-549 breast
  TGI: 25.9 µM
CAKI-1 renal
  TGI: > 100 µM
CCRF-CEM leukemia
  TGI: > 73 µM
COLO 205 colon
  TGI: 30.1 µM
DU-145 prostate
  TGI: 30.8 µM
EKVX NSCLC
  TGI: > 100 µM
HCC-2998 colon
  TGI: > 100 µM
HCT-116 colon
  TGI: > 100 µM
HCT-15 colon
  TGI: > 47.9 µM
HL-60(TB) leukemia
  TGI: > 66.8 µM
HOP-62 NSCLC
  TGI: 67 µM
HOP-92 NSCLC
  TGI: > 100 µM
HS 578T breast
  TGI: > 54.1 µM
HT29 colon
  TGI: 53.9 µM
IGROV1 ovarian
  TGI: > 100 µM
K-562 leukemia
  TGI: > 100 µM
KM12 colon
  TGI: > 100 µM
LOX IMVI melanoma
  TGI: 13.8 µM
M14 melanoma
  TGI: 25.4 µM
MALME-3M melanoma
  TGI: 18.3 µM
MCF7 breast
  TGI: 18.8 µM
MDA-MB-231 breast
  TGI: > 92.3 µM
MDA-N
  TGI: 3.37 µM
MOLT-4 leukemia
  TGI: 57 µM
NCI-H226 lung
  TGI: > 66.8 µM
NCI-H23 lung
  TGI: 11.4 µM
NCI-H460 lung
  TGI: 38.7 µM
NCI-H522 lung
  TGI: 36.6 µM
NCI/ADR-RES ovarian
  TGI: 67.5 µM
OVCAR-3 ovarian
  TGI: > 80.3 µM
OVCAR-4 ovarian
  TGI: 97 µM
OVCAR-5 ovarian
  TGI: 56.6 µM
OVCAR-8 ovarian
  TGI: > 91.6 µM
PC-3 prostate
  TGI: > 100 µM
RPMI-8226 leukemia
  TGI: > 87 µM
RXF 393 renal
  TGI: > 100 µM
SF-268 CNS
  TGI: > 100 µM
SF-295 CNS
  TGI: 21.6 µM
SF-539 CNS
  TGI: > 100 µM
SK-MEL-2 melanoma
  TGI: 31.5 µM
SK-MEL-28 melanoma
  TGI: 22.6 µM
SK-MEL-5 melanoma
  TGI: 13.8 µM
SK-OV-3 ovarian
  TGI: > 100 µM
SN12C renal
  TGI: 36.7 µM
SNB-75 CNS
  TGI: > 40.7 µM
SR leukemia
  TGI: > 64 µM
SW-620 colon
  TGI: 48 µM
T-47D breast
  TGI: > 100 µM
TK-10 renal
  TGI: > 85.2 µM
U251 CNS
  TGI: > 100 µM
UACC-257 melanoma
  TGI: 26 µM
UACC-62 melanoma
  TGI: 7.35 µM
UO-31 renal
  TGI: 8 µM

## CC(=O)O[C@H]1C(=O)[C@@]2(C)[C@H]([C@H](OC(=O)C3CCCCC3)[C@]3(O)C[C@H](OC(=O)[C@H](O)[C@@H](NC(=O)OC(C)(C)C)c4ccccc4)C(C)=C1C3(C)C)[C@]1(OC(C)=O)CO[C@@H]1C[C@@H]2O
786-0 renal
  TGI: > 7.61 µM
A549 NSCLC
  TGI: > 12.5 µM
ACHN renal
  TGI: > 12.5 µM
BT-549 breast
  TGI: 0.46 µM
CAKI-1 renal
  TGI: > 12.5 µM
CCRF-CEM leukemia
  TGI: > 8.82 µM
COLO 205 colon
  TGI: 0.144 µM
EKVX NSCLC
  TGI: > 12.5 µM
HCC-2998 colon
  TGI: 0.248 µM
HCT-116 colon
  TGI: > 4.97 µM
HCT-15 colon
  TGI: > 12.5 µM
HL-60(TB) leukemia
  TGI: 0.00365 µM
HOP-92 NSCLC
  TGI: 0.575 µM
HS 578T breast
  TGI: 0.741 µM
HT29 colon
  TGI: > 6.33 µM
IGROV1 ovarian
  TGI: > 12.5 µM
K-562 leukemia
  TGI: > 12.5 µM
KM12 colon
  TGI: > 12.5 µM
LOX IMVI melanoma
  TGI: > 11.9 µM
M14 melanoma
  TGI: 0.117 µM
MALME-3M melanoma
  TGI: 5.07 µM
MCF7 breast
  TGI: 0.0879 µM
MDA-MB-231 breast
  TGI: > 6.31 µM
MDA-N
  TGI: 0.0173 µM
MOLT-4 leukemia
  TGI: 0.337 µM
NCI-H226 lung
  TGI: > 12.5 µM
NCI-H23 lung
  TGI: > 9.76 µM
NCI-H460 lung
  TGI: > 5.2 µM
NCI-H522 lung
  TGI: 0.22 µM
NCI/ADR-RES ovarian
  TGI: > 5.94 µM
OVCAR-3 ovarian
  TGI: 0.019 µM
OVCAR-4 ovarian
  TGI: > 12.5 µM
OVCAR-5 ovarian
  TGI: 0.0701 µM
OVCAR-8 ovarian
  TGI: > 12.5 µM
PC-3 prostate
  TGI: > 12.5 µM
RPMI-8226 leukemia
  TGI: 0.432 µM
RXF 393 renal
  TGI: 2.15 µM
SF-268 CNS
  TGI: > 12.5 µM
SF-295 CNS
  TGI: 0.165 µM
SF-539 CNS
  TGI: 0.0571 µM
SK-MEL-2 melanoma
  TGI: 5.15 µM
SK-MEL-28 melanoma
  TGI: > 9.82 µM
SK-MEL-5 melanoma
  TGI: > 3.99 µM
SK-OV-3 ovarian
  TGI: > 12.5 µM
SN12C renal
  TGI: > 11.5 µM
SNB-19 CNS
  TGI: > 12.5 µM
SNB-75 CNS
  TGI: > 12.5 µM
SR leukemia
  TGI: > 12.5 µM
SW-620 colon
  TGI: > 12.5 µM
T-47D breast
  TGI: > 12.5 µM
TK-10 renal
  TGI: > 10.1 µM
U251 CNS
  TGI: > 12.5 µM
UACC-257 melanoma
  TGI: > 12.5 µM
UACC-62 melanoma
  TGI: > 2.47 µM
UO-31 renal
  TGI: > 12.5 µM

## CS(=O)(=O)c1ccc(NNc2cc(=O)[nH]c(=O)[nH]2)cc1
786-0 renal
  TGI: > 100 µM
A498 renal
  TGI: > 100 µM
A549 NSCLC
  TGI: > 100 µM
ACHN renal
  TGI: > 100 µM
BT-549 breast
  TGI: > 100 µM
CCRF-CEM leukemia
  TGI: > 100 µM
COLO 205 colon
  TGI: > 100 µM
DU-145 prostate
  TGI: > 100 µM
HCC-2998 colon
  TGI: > 100 µM
HCT-116 colon
  TGI: > 100 µM
HCT-15 colon
  TGI: > 100 µM
HL-60(TB) leukemia
  TGI: > 100 µM
HOP-62 NSCLC
  TGI: > 100 µM
HOP-92 NSCLC
  TGI: > 100 µM
HS 578T breast
  TGI: > 100 µM
HT29 colon
  TGI: > 100 µM
IGROV1 ovarian
  TGI: > 100 µM
K-562 leukemia
  TGI: > 100 µM
KM12 colon
  TGI: > 100 µM
LOX IMVI melanoma
  TGI: > 100 µM
M14 melanoma
  TGI: > 100 µM
MALME-3M melanoma
  TGI: > 100 µM
MDA-MB-231 breast
  TGI: > 100 µM
MDA-N
  TGI: > 100 µM
MOLT-4 leukemia
  TGI: > 100 µM
NCI-H226 lung
  TGI: > 100 µM
NCI-H23 lung
  TGI: > 100 µM
NCI-H460 lung
  TGI: > 100 µM
NCI-H522 lung
  TGI: 40.2 µM
NCI/ADR-RES ovarian
  TGI: > 100 µM
OVCAR-3 ovarian
  TGI: > 100 µM
OVCAR-4 ovarian
  TGI: > 100 µM
OVCAR-5 ovarian
  TGI: > 100 µM
PC-3 prostate
  TGI: > 100 µM
RPMI-8226 leukemia
  TGI: > 100 µM
RXF 393 renal
  TGI: > 100 µM
SF-268 CNS
  TGI: > 100 µM
SF-295 CNS
  TGI: > 100 µM
SF-539 CNS
  TGI: > 100 µM
SK-MEL-2 melanoma
  TGI: > 100 µM
SK-MEL-28 melanoma
  TGI: > 100 µM
SK-MEL-5 melanoma
  TGI: > 100 µM
SK-OV-3 ovarian
  TGI: > 100 µM
SN12C renal
  TGI: > 100 µM
SNB-19 CNS
  TGI: > 100 µM
SNB-75 CNS
  TGI: > 100 µM
SR leukemia
  TGI: > 100 µM
SW-620 colon
  TGI: > 100 µM
T-47D breast
  TGI: > 100 µM
TK-10 renal
  TGI: 9.34 µM
U251 CNS
  TGI: > 100 µM
UACC-257 melanoma
  TGI: > 100 µM
UACC-62 melanoma
  TGI: > 100 µM
UO-31 renal
  TGI: > 100 µM
